Reference: patent US20260256705A1, “LIPID NANOPARTICLE FORMULATIONS FOR VACCINES” (GLOBAL LIFE SCIENCES SOLUTIONS CANADA ULC, priority 2022, published 2026)

System: Luciferase mRNA
Experiment: Intravenous protein replacement model, Luciferase mRNA LNP
Assay type: in vivo, mice
Details: intravenous 0.1 mg/kg, four hours post administration
Method: Two different LNPs according to embodiments of the invention were injected into mice intravenously at 0.1 mg/kg. The payload was Luciferase·mRNA (Trilink-CLEANCAP™ FLuc mRNA (5 moU), Cat #L-7202). The top row of photographs in FIG. 8 showing fluorescence at four hours post administration was achieved by intravenous administration of LNP comprising PNI 516 30%, DPSC 56%, cholesterol 12.5% and DMG-PEG 1.5%. The bottom row in FIG. 8, which is brighter, was achieved by LNP comprising PNI 580 30%, DSPC 56%, cholesterol 12.5%, and DMG-PEG-1.5%.

CCCCCCCCC(CCCCCC)C(=O)O[C@@H]1[C@@H](OC(=O)C(CCCCCC)CCCCCCCC)CO[C@@H]1COC(=O)CCCN(C)C (stereo partly drawn) [PNI 580, (2R,3S,4S)-2-(((4-(dimethylamino)butanoyl)oxy)methyl)tetrahydrofuran-3,4-diyl bis(2-hexyldecanoate)]
protein expression in vivo (fluorescence): slightly more effective
